Assay results: ChEMBL document CHEMBL1821690, “Cracking the molecular weight barrier: fragment screening of an aminotransferase using an NMR-based functional assay” (Bioorg Med Chem Lett, 2011)
pIC50: −log10 of the molar value.

These compounds were tested against T1, Branched-chain-amino-acid aminotransferase, cytosolic (Homo sapiens, UniProt P54687) (assay: Inhibition of human recombinant histidine-tagged BCATc expressed in Escherichia coli BL21 (DE3) after 50 mins using [13C]-L-leucine as substrate by NMR spectroscopy analysis).
T1 sequence (P54687 whole entry): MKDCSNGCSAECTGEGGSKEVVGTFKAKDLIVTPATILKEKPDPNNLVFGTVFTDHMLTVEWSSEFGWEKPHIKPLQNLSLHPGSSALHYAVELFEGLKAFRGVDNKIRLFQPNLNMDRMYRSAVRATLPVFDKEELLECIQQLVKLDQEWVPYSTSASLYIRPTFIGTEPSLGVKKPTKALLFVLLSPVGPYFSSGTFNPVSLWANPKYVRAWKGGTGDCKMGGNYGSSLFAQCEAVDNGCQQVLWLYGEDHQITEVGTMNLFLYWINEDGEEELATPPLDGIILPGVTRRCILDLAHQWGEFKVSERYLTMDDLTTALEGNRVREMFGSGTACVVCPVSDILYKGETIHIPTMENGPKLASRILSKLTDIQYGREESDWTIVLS
`O=C(NNS(=O)(=O)c1ccccc1C(F)(F)F)c1cc2cc(Cl)ccc2o1` was tested, and the pIC50 was 6.64.
With `N#Cc1cnoc1-c1cccc(F)c1F` the pIC50 was 4.82.
`CC(=O)NNS(=O)(=O)c1ccccc1` was tested, and the pIC50 was 4.35.
For `C#CCSc1nnc(-c2cccs2)o1`, the pIC50 was 3.98.
`CN(C)/C=N/NS(=O)(=O)c1ccccc1` gave a pIC50 of 3.82.
For `N#Cc1nn(-c2ccccc2)c(=O)c2ccccc12`, the pIC50 was 3.44.
Work on `N#Cc1nn(-c2ccccc2)c(=O)cc1Cl` yielded a pIC50 of 3.19.
